1 molecule from BindingDB's records for doi:10.1016/s0960-894x(98)00140-1 (University of Connecticut, 1998) can be followed below.

This test deals with Pancreatic triacylglycerol lipase (Sus scrofa) (UniProt P00591). Description: Compound was tested for inhibition of porcine pancreatic lipase.
Pancreatic triacylglycerol lipase (Sus scrofa), sequence (P00591 whole entry, looked up): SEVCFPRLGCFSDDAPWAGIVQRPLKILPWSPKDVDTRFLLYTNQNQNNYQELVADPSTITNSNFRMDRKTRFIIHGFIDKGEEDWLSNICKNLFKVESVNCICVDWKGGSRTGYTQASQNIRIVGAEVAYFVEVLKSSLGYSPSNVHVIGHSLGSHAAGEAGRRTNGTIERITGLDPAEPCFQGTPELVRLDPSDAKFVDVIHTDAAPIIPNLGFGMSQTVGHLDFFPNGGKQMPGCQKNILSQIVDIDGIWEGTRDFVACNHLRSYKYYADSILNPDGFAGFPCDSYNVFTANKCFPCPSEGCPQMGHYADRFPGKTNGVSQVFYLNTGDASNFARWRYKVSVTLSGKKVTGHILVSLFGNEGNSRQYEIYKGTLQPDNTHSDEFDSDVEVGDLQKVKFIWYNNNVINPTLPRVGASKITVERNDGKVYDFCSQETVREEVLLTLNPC

On to `C=C1O[C@@H](C[C@H](CCCCCCCCCCC)OC(=O)[C@H](CC(C)C)NC=O)[C@@H]1CCCCCC`, for which inhibition was half-maximal at 3.44 µM (IC50).

Usually IC50 stands for the concentration needed to halve the response being measured. Low readings indicate inhibition by little substance, high ones a need for much substance.
